The subject of the assay is L1210 leukemia ip in BDF1 mice, survival T/C. The experiment in a line: NCI In Vivo Anticancer Drug Screen. Data for tumor model L1210 Leukemia (intraperitoneal) in B6D2F1 (BDF1) mice. Conditions: endpoint: mean survival time, higher = longer survival. The procedure, abridged:
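Each compound was tested against a transplantable tumor grown in mice. The endpoint was survival, with treated animals benchmarked against vehicle controls as a simple ratio.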

Setting [1] is: dose: 100.0 mg/kg/injection, schedule: Q01DX009 (ip), vehicle: Klucel (hydroxypropylcellulose) (HPC).
Where [2] appears, read: dose: 100.0 mg/kg/injection, schedule: Q04DX003 (ip), vehicle: Klucel (hydroxypropylcellulose) (HPC).
[3] abbreviates: dose: 200.0 mg/kg/injection, schedule: Q01DX009 (ip), vehicle: Klucel (hydroxypropylcellulose) (HPC).
Setting [4] is: dose: 200.0 mg/kg/injection, schedule: Q04DX003 (ip), vehicle: Klucel (hydroxypropylcellulose) (HPC).
[5] abbreviates: dose: 400.0 mg/kg/injection, schedule: Q04DX003 (ip), vehicle: Klucel (hydroxypropylcellulose) (HPC).
The mark [6] stands for this setting: dose: 100.0 mg/kg/injection, schedule: Q04DX002 (ip), vehicle: saline with Tween-80.
Setting [7] is: dose: 200.0 mg/kg/injection, schedule: Q04DX002 (ip), vehicle: saline with Tween-80.
The mark [8] stands for this setting: dose: 100.0 mg/kg/injection, schedule: Q01DX009 (ip), vehicle: saline with Tween-80.
Where [9] appears, read: dose: 100.0 mg/kg/injection, schedule: Q04DX003 (ip), vehicle: saline with Tween-80.
Setting [10] is: dose: 200.0 mg/kg/injection, schedule: Q04DX003 (ip), vehicle: saline with Tween-80.
[11] abbreviates: dose: 200.0 mg/kg/injection, schedule: Q01DX001 (ip), vehicle: carboxymethylcellulose (CMC).
Where [12] appears, read: dose: 100.0 mg/kg/injection, schedule: Q04DX002 (ip), vehicle: other.
Where [13] appears, read: dose: 200.0 mg/kg/injection, schedule: Q04DX002 (ip), vehicle: other.
[14] abbreviates: dose: 400.0 mg/kg/injection, schedule: Q04DX002 (ip), vehicle: other.
Setting [15] is: dose: 50.0 mg/kg/injection, schedule: Q04DX003 (ip), vehicle: Klucel (hydroxypropylcellulose) (HPC).
The mark [16] stands for this setting: dose: 400.0 mg/kg/injection, schedule: Q01DX009 (ip), vehicle: Klucel (hydroxypropylcellulose) (HPC).
Setting [17] is: dose: 50.0 mg/kg/injection, schedule: Q01DX001 (ip), vehicle: saline.
Setting [18] is: dose: 100.0 mg/kg/injection, schedule: Q01DX001 (ip), vehicle: saline.
Setting [19] is: dose: 200.0 mg/kg/injection, schedule: Q01DX001 (ip), vehicle: saline.

Values joined by “and” are separate entries in the source; they are usually repeats but may differ in a detail not shown here. Equal values may be shown once. Inconclusive results and toxic doses are left out.

In the case of `O=C(NNC(=O)OCc1ccccc1)OCc1ccccc1`, the T/C was 104 % of control under setting [1]; 97 % of control under setting [2]; 113 % of control under setting [3]; 97 % of control under setting [4]; 97 % of control under setting [5].
Regarding `CCCCCCCC(=O)N1C(=O)CCC1C(=O)NCCCCC(=O)OC` (centres undefined), the T/C is 103 % of control under setting [6]; 116 % of control under setting [7]; 90 % of control (dose: 400.0 mg/kg/injection, schedule: Q04DX002 (ip), vehicle: saline with Tween-80).
In the case of `CCSSCC(NC(=O)OC(C)(C)C)C(=O)O` (centres undefined), the T/C is 97 % of control (dose: 50.0 mg/kg/injection, schedule: Q04DX003 (ip), vehicle: other); 101 % of control (dose: 100.0 mg/kg/injection, schedule: Q01DX001 (ip), vehicle: other); 94 % of control (dose: 100.0 mg/kg/injection, schedule: Q04DX003 (ip), vehicle: other); 97 % of control (dose: 200.0 mg/kg/injection, schedule: Q01DX001 (ip), vehicle: other); 97 % of control (dose: 200.0 mg/kg/injection, schedule: Q04DX003 (ip), vehicle: other).
Turning to `O=C(/C=N/O)Nc1cc(Cl)ccc1Cl`, the T/C is, setting by setting: under setting [8], 91 % of control; under setting [9], 97 % of control; (dose: 200.0 mg/kg/injection, schedule: Q01DX009 (ip), vehicle: saline with Tween-80) 87 % of control; under setting [10], 93 % of control; (dose: 400.0 mg/kg/injection, schedule: Q01DX009 (ip), vehicle: saline with Tween-80) 88 % of control; (dose: 400.0 mg/kg/injection, schedule: Q04DX003 (ip), vehicle: saline with Tween-80) 108 % of control.
In the case of `CCCCCCCCCCCCCCCCC(=O)CC`, the T/C reads like this: under setting [2], 96 % of control; under setting [4], 91 % of control; under setting [5], 92 % of control.
`CCSc1ncc(Br)c(Sc2nc(N)nc3nc[nH]c23)n1`: the T/C runs as follows: (dose: 1.5 mg/kg/injection, schedule: Q01DX Z (ip), vehicle: carboxymethylcellulose (CMC)) 107 % of control; (dose: 12.0 mg/kg/injection, schedule: Q01DX Z (ip), vehicle: carboxymethylcellulose (CMC)) 150 % of control; (dose: 25.0 mg/kg/injection, schedule: Q01DX001 (ip), vehicle: carboxymethylcellulose (CMC)) 121 % of control; (dose: 25.0 mg/kg/injection, schedule: Q01DX Z (ip), vehicle: methylcellulose (MC)) 86 % of control; under setting [11], 116 % of control.
On to `Nc1ccc(NC(=O)Nc2ccccc2)cc1`, for which the T/C is, setting by setting: (dose: 100.0 mg/kg/injection, schedule: Q04DX002 (ip), vehicle: Klucel (hydroxypropylcellulose) (HPC)) 101 % of control; (dose: 200.0 mg/kg/injection, schedule: Q04DX002 (ip), vehicle: Klucel (hydroxypropylcellulose) (HPC)) 90 % of control; (dose: 400.0 mg/kg/injection, schedule: Q04DX002 (ip), vehicle: Klucel (hydroxypropylcellulose) (HPC)) 101 % of control.
As to `C=C(Cl)CNN1CCOCC1`, the T/C is, setting by setting: (dose: 25.0 mg/kg/injection, schedule: Q01DX009 (ip), vehicle: saline with Tween-80) 96 % of control; (dose: 25.0 mg/kg/injection, schedule: Q04DX003 (ip), vehicle: saline with Tween-80) 95 % of control; (dose: 50.0 mg/kg/injection, schedule: Q01DX009 (ip), vehicle: saline with Tween-80) 98 % of control; (dose: 50.0 mg/kg/injection, schedule: Q04DX003 (ip), vehicle: saline with Tween-80) 97 % of control; under setting [8], 114 % of control; under setting [9], 98 % of control and 111 % of control. Under setting [10], the T/C was 94 % of control.
For the compound `CCOC(=O)Nc1ccc(F)cc1OC`, the T/C reads like this: under setting [12], 107 % of control; under setting [13], 104 % of control; under setting [14], 96 % of control.
In the case of `O=C(O)c1cncc(-c2ccccc2)c1`, the T/C is 104 % of control under setting [6] and 111 % of control under setting [7].
In the case of `OC1CC2c3ccccc3C1c1cccc[n+]12` (centres undefined), the T/C by setting is: (dose: 12.5 mg/kg/injection, schedule: Q01DX009 (ip), vehicle: Klucel (hydroxypropylcellulose) (HPC)) 98 % of control; (dose: 12.5 mg/kg/injection, schedule: Q04DX003 (ip), vehicle: Klucel (hydroxypropylcellulose) (HPC)) 94 % of control and 97 % of control; (dose: 12.5 mg/kg/injection, schedule: Q04DX003 (ip), vehicle: saline) 100 % of control; (dose: 25.0 mg/kg/injection, schedule: Q01DX009 (ip), vehicle: Klucel (hydroxypropylcellulose) (HPC)) 96 % of control; (dose: 25.0 mg/kg/injection, schedule: Q04DX003 (ip), vehicle: Klucel (hydroxypropylcellulose) (HPC)) 103 % of control and 95 % of control; (dose: 25.0 mg/kg/injection, schedule: Q04DX003 (ip), vehicle: saline) 103 % of control. Also, the T/C reads like this: (dose: 50.0 mg/kg/injection, schedule: Q01DX009 (ip), vehicle: Klucel (hydroxypropylcellulose) (HPC)) 94 % of control; under setting [15], 94 % of control and 95 % of control; (dose: 50.0 mg/kg/injection, schedule: Q04DX003 (ip), vehicle: saline) 97 % of control; (dose: 100.0 mg/kg/injection, schedule: Q04DX003 (ip), vehicle: saline) 102 % of control.
In the case of `CCN(CC)c1ccc(-c2nc3ccccc3s2)cc1`, the T/C was 99 % of control under setting [15], 94 % of control under setting [2] and 91 % of control under setting [4].
For the compound `CCOc1ccccc1NC(=O)c1cccc(C(=O)Nc2ccccc2OCC)c1`, the T/C under setting [1] was 92 % of control; the T/C under setting [2] is 90 % of control; the T/C under setting [3] was 88 % of control; the T/C under setting [4] was 96 % of control; the T/C under setting [16] is 88 % of control; the T/C under setting [5] was 90 % of control.
Regarding `O=C(O)CCC(=O)Nc1ccccc1CC(c1c[nH]c2ccccc12)c1c[nH]c2ccccc12`, the T/C was 106 % of control under setting [17]; 104 % of control under setting [18]; 106 % of control under setting [19]; 104 % of control (dose: 400.0 mg/kg/injection, schedule: Q01DX001 (ip), vehicle: saline).
For `CC(=O)Nc1c(Cl)cc2c(c1Cl)Cc1cc(C#N)ccc1-2`, the T/C is, setting by setting: (dose: 100.0 mg/kg/injection, schedule: Q01DX001 (ip), vehicle: carboxymethylcellulose (CMC)) 102 % of control; under setting [11], 102 % of control; (dose: 400.0 mg/kg/injection, schedule: Q01DX001 (ip), vehicle: carboxymethylcellulose (CMC)) 98 % of control.
On to `CCCCCCCCCCCCCCCc1cc(=O)n(C)n1C`, for which the T/C runs as follows: under setting [9], 93 % of control; under setting [10], 94 % of control.
Consider `O=C(Nc1ccccc1F)c1ccccc1`, for which the T/C by setting is: under setting [1], 97 % of control; under setting [2], 96 % of control; under setting [3], 87 % of control; under setting [4], 98 % of control; under setting [16], 89 % of control; under setting [5], 104 % of control.
Turning to `COc1cc(CC2c3cccc(Oc4ccc(C)cc4)c3CCN2C)ccc1Oc1ccc(C)cc1` (centres undefined), the T/C is, setting by setting: under setting [12], 96 % of control; under setting [13], 100 % of control; under setting [14], 100 % of control.
As to `[O-][n+]1ccccc1CCl`, the T/C under setting [17] was 98 % of control and the T/C under setting [18] is 100 % of control.
For `CC(=O)[O][Pb]([O]C(C)=O)([O]C(C)=O)[c]1ccccc1`, the T/C by setting is: (dose: 6.25 mg/kg/injection, schedule: Q01DX009 (ip), vehicle: gum acacia) 102 % of control; (dose: 12.5 mg/kg/injection, schedule: Q01DX009 (ip), vehicle: gum acacia) 98 % of control; (dose: 25.0 mg/kg/injection, schedule: Q01DX009 (ip), vehicle: gum acacia) 95 % of control; (dose: 50.0 mg/kg/injection, schedule: Q01DX009 (ip), vehicle: gum acacia) 103 % of control; under setting [18], 97 % of control; (dose: 100.0 mg/kg/injection, schedule: Q04DX002 (ip), vehicle: gum acacia) 107 % of control. The T/C is 103 % of control under setting [19] and 103 % of control (dose: 200.0 mg/kg/injection, schedule: Q04DX002 (ip), vehicle: gum acacia).

(Values after PubChem BioAssay AID248 (DTP/NCI, 2004).)
